Each molecule was assayed against T1, P2X7 (UniProt Q99572) (assay: pIC50 values for P2X7 (Table 1)).
T1 sequence (Q99572 1-595): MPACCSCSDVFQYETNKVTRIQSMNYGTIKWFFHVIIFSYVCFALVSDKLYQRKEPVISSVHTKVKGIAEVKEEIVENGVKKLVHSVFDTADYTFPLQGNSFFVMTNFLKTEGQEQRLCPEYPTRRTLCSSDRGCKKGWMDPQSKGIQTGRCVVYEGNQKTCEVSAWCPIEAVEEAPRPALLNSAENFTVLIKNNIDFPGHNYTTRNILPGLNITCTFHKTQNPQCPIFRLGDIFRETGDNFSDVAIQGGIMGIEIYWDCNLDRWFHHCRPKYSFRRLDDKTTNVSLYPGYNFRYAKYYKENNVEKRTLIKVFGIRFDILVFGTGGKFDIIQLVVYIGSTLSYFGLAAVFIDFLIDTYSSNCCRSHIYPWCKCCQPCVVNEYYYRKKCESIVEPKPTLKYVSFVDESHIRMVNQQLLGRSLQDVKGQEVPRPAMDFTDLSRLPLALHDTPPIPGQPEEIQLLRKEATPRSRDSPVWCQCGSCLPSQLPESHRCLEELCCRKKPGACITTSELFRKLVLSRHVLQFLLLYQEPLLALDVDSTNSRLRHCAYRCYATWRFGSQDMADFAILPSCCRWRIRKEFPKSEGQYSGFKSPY
Assay type: cell-based
How it was run: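 Fluo-3-loaded 1321N1 cells expressing human P2X7 or HEK293 cells expressing rat P2X7, preincubated 20 min at room temperature with antagonist in HBSS/Hepes/probenecid buffer with 2 mM CaCl2. BzATP agonist at 100 μM final (human) or 5 μM final (rat); fluorescence read 5 min, peak normalized to 5 μM ionomycin response.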

SMILES | pIC50
Cc1cc(F)c(OCCO)cc1NC(=O)N1C=CC(=O)C[C@H]1c1ccc(F)cc1 [Compound 111, (S)-2-(4-Fluoro-phenyl)-4-oxo-3,4-dihydro-2H-pyridine-1-carboxylic acid [4-fluoro-5-(2-hydroxy-ethoxy)-2-methyl-phenyl]-amide] | 8.12
O=C1C=CN(C(=O)Nc2cc3[nH]c(=O)[nH]c3cc2Br)C(c2ccc(F)cc2)C1 (stereo not drawn) [Compound 112, 2-(4-Fluoro-phenyl)-4-oxo-3,4-dihydro-2H-pyridine-1-carboxylic acid (6-bromo-2-oxo-2,3-dihydro-1H-benzoimidazol-5-yl)-amide] | 5.93
Cc1nc2cc(NC(=O)N3C=CC(=O)CC3c3ccc(F)cc3)ccc2s1 (stereo not drawn) [Compound 113, 2-(4-Fluoro-phenyl)-4-oxo-3,4-dihydro-2H-pyridine-1-carboxylic acid (2-methyl-benzothiazol-5-yl)-amide] | 5.505
Cc1cc(Cl)c(OCCCO)cc1NC(=O)N1C=CC(=O)C[C@H]1c1ccc(F)cc1 [Compound 114, (S)-2-(4-Fluoro-phenyl)-4-oxo-3,4-dihydro-2H-pyridine-1-carboxylic acid [4-chloro-5-(3-hydroxy-propoxy)-2-methyl-phenyl]-amide] | 7.74
COc1cc(NC(=O)N2C=CC(=O)CC2c2ccc(F)cc2)c(N(C)C)cc1OC (stereo not drawn) [Compound 115, 2-(4-Fluoro-phenyl)-4-oxo-3,4-dihydro-2H-pyridine-1-carboxylic acid (2-dimethylamino-4,5-dimethoxy-phenyl)-amide] | 5.915
Cn1ccc2cc(NC(=O)N3C=CC(=O)C[C@H]3c3ccc(F)cc3)ccc21 [Compound 116, (S)-2-(4-Fluoro-phenyl)-4-oxo-3,4-dihydro-2H-pyridine-1-carboxylic acid (1-methyl-1H-indol-5-yl)-amide] | 7.405
O=C1C=CN(C(=O)Nc2ccc3ncsc3c2)C(c2ccc(F)cc2)C1 (stereo not drawn) [Compound 117, 2-(4-Fluoro-phenyl)-4-oxo-3,4-dihydro-2H-pyridine-1-carboxylic acid benzothiazol-6-ylamide] | 6.31
Cc1cc(Cl)c(CO)cc1NC(=O)N1C=CC(=O)C[C@H]1c1ccc(F)cc1 [Compound 118, (S)-2-(4-Fluoro-phenyl)-4-oxo-3,4-dihydro-2H-pyridine-1-carboxylic acid (4-chloro-5-hydroxymethyl-2-methyl-phenyl)-amide] | 7.735
O=C1C=CN(C(=O)Nc2ccc(OC(F)(F)F)cc2Br)[C@H](c2ccc(F)cc2)C1 [Compound 119] | 6.175
CN(C)C(=O)COc1cc(NC(=O)N2C=CC(=O)C[C@H]2c2ccc(F)cc2)c(Br)cc1Cl [Compound 120, (S)-2-(4-Fluoro-phenyl)-4-oxo-3,4-dihydro-2H-pyridine-1-carboxylic acid (2-bromo-4-chloro-5-dimethylcarbamoylmethoxy-phenyl)-amide] | 6.95
COCCN(C)Cc1cc(NC(=O)N2C=CC(=O)C[C@H]2c2ccc(F)cc2)c(C)cc1Cl [Compound 121, (S)-2-(4-Fluoro-phenyl)-4-oxo-3,4-dihydro-2H-pyridine-1-carboxylic acid (4-chloro-5-{[(2-methoxy-ethyl)-methyl-amino]-methyl}-2-methyl-phenyl)-amide] | 6.43
Cc1cc(Cl)c(CNC(=O)OC(C)(C)C)cc1NC(=O)N1C=CC(=O)C[C@H]1c1ccc(F)cc1 [Compound 122, (2-Chloro-5-{[(S)-2-(4-fluoro-phenyl)-4-oxo-3,4-dihydro-2H-pyridine-1-carbonyl]-amino}-4-methyl-benzyl)-carbamic acid tert-butyl ester] | 5.995
CC(=O)NCc1cc(NC(=O)N2C=CC(=O)C[C@H]2c2ccc(F)cc2)c(C)cc1Cl [Compound 124, (S)-2-(4-Fluoro-phenyl)-4-oxo-3,4-dihydro-2H-pyridine-1-carboxylic acid [5-(acetylamino-methyl)-4-chloro-2-methyl-phenyl]-amide] | 6.98
Cc1c(NC(=O)N2C=CC(=O)C[C@H]2c2ccc(F)cc2)ccc2ncccc12 [Compound 125, (S)-2-(4-Fluoro-phenyl)-4-oxo-3,4-dihydro-2H-pyridine-1-carboxylic acid (5-methyl-quinolin-6-yl)-amide] | 7.16
O=C1C=CN(C(=O)Nc2ccccc2)[C@H](c2ccc(F)cc2)C1 [Compound 126, (S)-2-(4-Fluoro-phenyl)-4-oxo-3,4-dihydro-2H-pyridine-1-carboxylic acid phenylamide] | 6.18
Cc1cc(Cl)c(CN(CCO)CCO)cc1NC(=O)N1C=CC(=O)C[C@H]1c1ccc(F)cc1 [Compound 127, (S)-2-(4-Fluoro-phenyl)-4-oxo-3,4-dihydro-2H-pyridine-1-carboxylic acid (5-{[bis(2-hydroxy-ethyl)-amino]-methyl}-4-chloro-2-methyl-phenyl)-amide] | 7.615
CN1C(=O)CCc2cc(Br)c(NC(=O)N3C=CC(=O)C[C@H]3c3ccc(F)cc3)cc21 [Compound 128, (S)-2-(4-Fluoro-phenyl)-4-oxo-3,4-dihydro-2H-pyridine-1-carboxylic acid (6-bromo-1-methyl-2-oxo-1,2,3,4-tetrahydro-quinolin-7-yl)-amide] | 7.595
Cc1cc(Cl)c(CN2CCOCC2)cc1NC(=O)N1C=CC(=O)C[C@H]1c1ccc(F)cc1 [Compound 129, (S)-2-(4-Fluoro-phenyl)-4-oxo-3,4-dihydro-2H-pyridine-1-carboxylic acid (4-chloro-2-methyl-5-morpholin-4-ylmethyl-phenyl)-amide] | 6.945
Cc1cccc(NC(=O)N2C=CC(=O)C[C@H]2c2ccc(F)cc2)c1 [Compound 130, (S)-2-(4-Fluoro-phenyl)-4-oxo-3,4-dihydro-2H-pyridine-1-carboxylic acid m-tolylamide] | 7.12
Cc1ccccc1NC(=O)N1C=CC(=O)C[C@H]1c1ccc(F)cc1 [Compound 131, (S)-2-(4-Fluoro-phenyl)-4-oxo-3,4-dihydro-2H-pyridine-1-carbxoylic acid o-tolylamide] | 7.53
COc1cccc(NC(=O)N2C=CC(=O)C[C@H]2c2ccc(F)cc2)c1C [Compound 132, (S)-2-(4-Fluoro-phenyl)-4-oxo-3,4-dihydro-2H-pyridine-1-carboxylic acid (3-methoxy-2-methyl-phenyl)-amide] | 8.57
Cc1cc(Cl)c(CCO)cc1NC(=O)N1C=CC(=O)C[C@H]1c1ccc(F)cc1 [Compound 133, (S)-2-(4-Fluoro-phenyl)-4-oxo-3,4-dihydro-2H-pyridine-1-carboxylic acid [4-chloro-5-(2-hydroxy-ethyl)-2-methyl-phenyl]-amide] | 8.06
O=C1C=CN(C(=O)Nc2ccc3c(c2)NC(=O)C3)[C@H](c2ccc(F)cc2)C1 [Compound 134, (S)-2-(4-Fluoro-phenyl)-4-oxo-3,4-dihydro-2H-pyridine-1-carboxylic acid (2-oxo-2,3-dihydro-1H-indol-6-yl)-amide] | 5.385
O=C1C=CN(C(=O)Nc2cc3c(cc2Br)OCCO3)[C@H](c2ccc(F)cc2)C1 [Compound 136, (S)-2-(4-Fluoro-phenyl)-4-oxo-3,4-dihydro-2H-pyridine-1-carboxylic acid (7-bromo-2,3-dihydro-benzo[1,4]dioxin-6-yl)-amide] | 8.095
Cc1ccc(NC(=O)N2C=CC(=O)C[C@H]2c2ccc(F)cc2)cc1 [Compound 137, (S)-2-(4-Fluoro-phenyl)-4-oxo-3,4-dihydro-2H-pyridine-1-carboxylic acid p-tolylamide] | 6.57
Cc1c(Cl)cccc1NC(=O)N1C=CC(=O)C[C@H]1c1ccc(F)cc1 [Compound 138, (S)-2-(4-Fluoro-phenyl)-4-oxo-3,4-dihydro-2H-pyridine-1-carboxylic acid (3-chloro-2-methyl-phenyl)-amide] | 8.34
Cc1c(CO)cccc1NC(=O)N1C=CC(=O)C[C@H]1c1ccc(F)cc1 [Compound 139, (S)-2-(4-Fluoro-phenyl)-4-oxo-3,4-dihydro-2H-pyridine-1-carboxylic acid (3-hydroxymethyl-2-methyl-phenyl)-amide] | 7.79
Cc1cc2ccn(C)c2cc1NC(=O)N1C=CC(=O)C[C@H]1c1ccc(F)cc1 [Compound 140, (S)-2-(4-Fluoro-phenyl)-4-oxo-3,4-dihydro-2H-pyridine-1-carboxylic acid (1,5-dimethyl-1H-indol-6-yl)-amide] | 8.565
CNC(=O)c1cccc(NC(=O)N2C=CC(=O)C[C@H]2c2ccc(F)cc2)c1C [Compound 141, (S)-2-(4-Fluoro-phenyl)-4-oxo-3,4-dihydro-2H-pyridine-1-carboxylic acid (2-methyl-3-methylcarbamoyl-phenyl)-amide] | 6.185
Cc1cc(Cl)c(OC2CCNCC2)cc1NC(=O)N1C=CC(=O)C[C@H]1c1ccc(F)cc1 [Compound 142, (S)-2-(4-Fluoro-phenyl)-4-oxo-3,4-dihydro-2H-pyridine-1-carboxylic acid [4-chloro-2-methyl-5-(piperidin-4-yloxy)-phenyl]-amide] | 6.71
